# pIC50: −log10 of the molar value.
# Target: T1, Neuropeptide Y receptor type 5 (Homo sapiens, UniProt Q15761)
# T1 sequence (Q15761 whole entry): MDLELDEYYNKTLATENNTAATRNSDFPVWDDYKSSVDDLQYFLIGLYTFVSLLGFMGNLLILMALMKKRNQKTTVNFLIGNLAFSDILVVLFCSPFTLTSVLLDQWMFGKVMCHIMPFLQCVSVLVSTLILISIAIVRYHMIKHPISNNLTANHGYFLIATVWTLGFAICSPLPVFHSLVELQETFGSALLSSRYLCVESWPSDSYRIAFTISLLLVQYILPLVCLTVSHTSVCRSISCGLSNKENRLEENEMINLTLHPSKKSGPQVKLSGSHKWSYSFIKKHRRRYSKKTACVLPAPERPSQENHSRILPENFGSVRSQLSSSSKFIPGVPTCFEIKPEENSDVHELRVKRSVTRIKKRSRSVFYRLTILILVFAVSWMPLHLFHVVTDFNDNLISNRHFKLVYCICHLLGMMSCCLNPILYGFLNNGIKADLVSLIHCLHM
# Experiment: Inhibition of [125I]-PYY binding to recombinant NPY Y5 receptor on HEK293 cell membranes.
# Format: cell-based
row,Compound,pIC50
1,C=CCC1c2ccc(F)cc2CCC1NC(=O)[C@H]1CC[C@H](CNS(=O)(=O)c2ccccc2)CC1 (some centres not stated),7.12
2,COc1ccc2c(c1)CCC(NC[C@H]1CC[C@H](CNS(=O)(=O)c3ccccc3F)CC1)C2Cc1cccnc1 (some centres not stated),7.64
3,COc1ccc2c(c1)CCC(NC[C@H]1CC[C@H](CNS(=O)(=O)c3ccc4ccccc4c3)CC1)C2Cc1ccccc1 (some centres not stated),6.35
4,COc1ccc2c(c1)CCC(NC[C@H]1CC[C@H](CNS(=O)(=O)c3ccc4ccccc4c3)CC1)C2Cc1cccnc1 (some centres not stated),6.47
5,O=C(NC1CCc2cc(F)ccc2C1Cc1cccnc1)[C@H]1CC[C@H](CNS(=O)(=O)c2ccccc2)CC1 (some centres not stated),7.40
6,COc1ccc2c(c1)CCC(NC(=O)[C@H]1CC[C@H](CNS(=O)(=O)c3ccccc3)CC1)C2Cc1cccnc1 (some centres not stated),7.96
7,O=S(=O)(NC[C@H]1CC[C@H](CNC2CCc3cc(F)ccc3C2Cc2cccnc2)CC1)c1ccccc1F (some centres not stated),7.72
8,C=CCC1c2ccc(O)cc2CCC1NC[C@H]1CC[C@H](CNS(=O)(=O)c2ccccc2)CC1 (some centres not stated),8.30
9,C=CCC1c2ccc(F)cc2CCC1NC[C@H]1CC[C@H](CNS(=O)(=O)c2ccccc2)CC1 (some centres not stated),7.68
10,O=C(NC1CCc2cc(F)ccc2C1Cc1cccnc1)[C@H]1CC[C@H](CNS(=O)(=O)c2ccccc2F)CC1 (some centres not stated),7.92
11,N[C@@H](CCCCNS(=O)(=O)c1ccccc1F)C(=O)NC1CCc2cc(F)ccc2C1Cc1cccnc1 (some centres not stated),7.66
12,N[C@@H](CCCCNS(=O)(=O)c1ccccc1F)CNC1CCc2cc(O)ccc2C1Cc1cccnc1 (some centres not stated),9.00

# Other lines, results leading:
row,pIC50,Compound
1,8.00,O=C(CN1CCC(NS(=O)(=O)c2ccccc2)CC1)NC1CCc2cc(F)ccc2C1Cc1cccnc1 (configuration not stated)
2,7.28,COc1ccc2c(c1)CCC(NCCCCCCNS(=O)(=O)c1ccccc1)C2Cc1cccnc1 (configuration not stated)
3,7.57,O=C(CN1CC[C@@H](NS(=O)(=O)c2ccccc2)C1)NC1CCc2cc(F)ccc2C1Cc1cccnc1 (some centres not stated)
4,8.15,O=S(=O)(NC[C@H]1CC[C@H](CNC2CCc3cc(O)ccc3C2Cc2cccnc2)CC1)c1ccccc1F (some centres not stated)
5,7.96,COc1ccc2c(c1)CCC(NC(=O)[C@H]1CC[C@H](CNS(=O)(=O)c3ccccc3F)CC1)C2Cc1cccnc1 (some centres not stated)
6,7.57,O=S(=O)(NC[C@H]1CC[C@H](CNC2CCc3cc(F)ccc3C2Cc2cccnc2)CC1)c1ccccc1 (some centres not stated)
7,8.00,COc1ccc2c(c1)CCC(NC[C@H]1CC[C@H](CNS(=O)(=O)c3ccccc3)CC1)C2Cc1cccnc1 (some centres not stated)
8,8.30,O=C(CN1CC[C@H](NS(=O)(=O)c2ccccc2)C1)NC1CCc2cc(F)ccc2C1Cc1cccnc1 (some centres not stated)
9,7.96,O=C(CN1CCC(NS(=O)(=O)c2ccccc2)C1)NC1CCc2cc(F)ccc2C1Cc1cccnc1 (configuration not stated)
10,6.05,COc1ccc2c(c1)CCC(NCCc1ccc(OC)c(OC)c1)C2Cc1ccccc1 (configuration not stated)

# From ChEMBL document CHEMBL1133574, “alpha-Substituted N-(sulfonamido)alkyl-beta-aminotetralins: potent and selective neuropeptide Y Y5 receptor antagonists” (J Med Chem, 2000)
